Where two headings read alike, the source gives them in different places.
Tests used:
kinases (468) [1] = biological target: kinases (468) (Homo sapiens, UniProt P00533); details: EGFR; 1000 nM
kinases (468) [2] = biological target: kinases (468) (Homo sapiens, UniProt P54646); details: AMPK-alpha2 (PRKAA2); 1000 nM
kinases (468) [3] = biological target: kinases (468) (Homo sapiens, UniProt Q6ZN16); details: MAP3K15; 1000 nM
kinases (468) [4] = biological target: kinases (468) (Homo sapiens, UniProt P36888, D835V); details: FLT3(D835V); 1000 nM
kinases (468) [5] = biological target: kinases (468) (Homo sapiens, UniProt P54760); details: EPHB4; 1000 nM
kinases (468) [6] = biological target: kinases (468) (Homo sapiens, UniProt Q9NQU5); details: PAK6; 1000 nM
kinases (468) [7] = biological target: kinases (468) (Homo sapiens, UniProt Q9H2K8); details: kinase TAOK3 (Entrez TAOK3); compound concentration 1000 nM
Chain of kinases (468) (Homo sapiens, UniProt Q9H2K8) (Q9H2K8 whole entry): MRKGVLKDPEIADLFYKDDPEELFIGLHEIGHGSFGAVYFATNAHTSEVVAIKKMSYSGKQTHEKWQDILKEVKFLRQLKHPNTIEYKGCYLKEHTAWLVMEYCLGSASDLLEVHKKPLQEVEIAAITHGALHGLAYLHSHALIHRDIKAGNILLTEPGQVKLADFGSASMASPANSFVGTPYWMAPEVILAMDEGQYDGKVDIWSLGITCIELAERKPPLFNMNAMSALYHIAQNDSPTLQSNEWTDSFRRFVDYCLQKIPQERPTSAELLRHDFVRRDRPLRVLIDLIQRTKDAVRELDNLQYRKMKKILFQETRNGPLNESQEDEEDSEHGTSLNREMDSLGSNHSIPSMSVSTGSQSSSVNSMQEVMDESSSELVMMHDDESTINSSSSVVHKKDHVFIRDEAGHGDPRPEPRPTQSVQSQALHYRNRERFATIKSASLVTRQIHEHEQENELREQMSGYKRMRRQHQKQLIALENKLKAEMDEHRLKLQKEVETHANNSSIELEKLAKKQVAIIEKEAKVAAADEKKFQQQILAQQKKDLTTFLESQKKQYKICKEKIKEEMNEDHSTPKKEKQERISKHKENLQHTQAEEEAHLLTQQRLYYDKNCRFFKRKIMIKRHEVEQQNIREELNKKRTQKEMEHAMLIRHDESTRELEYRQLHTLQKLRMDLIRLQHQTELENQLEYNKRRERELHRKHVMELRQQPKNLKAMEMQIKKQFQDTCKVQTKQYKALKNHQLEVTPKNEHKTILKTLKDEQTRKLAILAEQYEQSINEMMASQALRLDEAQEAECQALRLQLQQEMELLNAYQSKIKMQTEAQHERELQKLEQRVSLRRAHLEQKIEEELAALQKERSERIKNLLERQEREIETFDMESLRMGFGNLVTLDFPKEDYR

kinases (468) [8] = biological target: kinases (468) (Homo sapiens, UniProt Q15349); details: compound concentration 1000 nM
Chain of kinases (468) (Homo sapiens, UniProt Q15349) (Q15349 whole entry): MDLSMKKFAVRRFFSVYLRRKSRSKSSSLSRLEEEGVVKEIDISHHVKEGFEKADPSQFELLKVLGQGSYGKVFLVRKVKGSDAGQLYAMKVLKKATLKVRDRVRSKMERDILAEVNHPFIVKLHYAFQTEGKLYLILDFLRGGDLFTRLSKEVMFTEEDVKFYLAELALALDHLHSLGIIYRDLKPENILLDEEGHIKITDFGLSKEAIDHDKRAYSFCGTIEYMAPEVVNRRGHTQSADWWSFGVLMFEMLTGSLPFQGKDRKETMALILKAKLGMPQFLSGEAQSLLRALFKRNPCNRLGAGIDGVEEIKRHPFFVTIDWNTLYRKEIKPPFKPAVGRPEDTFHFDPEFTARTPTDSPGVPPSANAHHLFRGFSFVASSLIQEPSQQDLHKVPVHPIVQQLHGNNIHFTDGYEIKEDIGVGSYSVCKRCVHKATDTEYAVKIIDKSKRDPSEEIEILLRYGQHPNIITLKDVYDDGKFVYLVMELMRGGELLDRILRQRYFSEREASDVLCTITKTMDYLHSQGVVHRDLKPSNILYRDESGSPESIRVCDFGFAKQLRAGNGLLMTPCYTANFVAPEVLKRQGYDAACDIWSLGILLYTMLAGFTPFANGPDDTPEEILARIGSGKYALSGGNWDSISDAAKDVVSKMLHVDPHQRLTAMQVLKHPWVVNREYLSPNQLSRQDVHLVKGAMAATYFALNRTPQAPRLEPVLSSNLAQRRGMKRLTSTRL

kinases (468) [9] = biological target: kinases (468) (Homo sapiens, UniProt P21709); details: EPHA1; 1000 nM
kinases (468) [10] = biological target: kinases (468) (Homo sapiens, UniProt P68400); details: CSNK2A1; 1000 nM
kinases (468) [11] = biological target: kinases (468) (Homo sapiens, UniProt Q32MK0); details: MLCK (MYLK3); 1000 nM
kinases (468) [12] = biological target: kinases (468) (Homo sapiens, UniProt P29317); details: EPHA2; 1000 nM
kinases (468) [13] = biological target: kinases (468) (Homo sapiens, UniProt Q6P2M8); details: CAMK1B (PNCK); 1000 nM
kinases (468) [14] = biological target: kinases (468) (Homo sapiens, UniProt Q9UEE5); details: DRAK1 (STK17A); 1000 nM
kinases (468) [15] = biological target: kinases (468) (Homo sapiens, UniProt Q86Z02); details: HIPK1; 1000 nM
kinases (468) [16] = biological target: kinases (468) (Homo sapiens, UniProt Q8IW41); details: MAPKAPK5; 1000 nM
kinases (468) [17] = biological target: kinases (468) (Homo sapiens, UniProt Q96PN8); details: kinase TSSK3 (Entrez TSSK3); compound concentration 1000 nM
kinases (468) [18] = biological target: kinases (468) (Homo sapiens, UniProt P53778); details: p38-gamma (MAPK12); 1000 nM
Chain of kinases (468) (Homo sapiens, UniProt P53778) (P53778 whole entry): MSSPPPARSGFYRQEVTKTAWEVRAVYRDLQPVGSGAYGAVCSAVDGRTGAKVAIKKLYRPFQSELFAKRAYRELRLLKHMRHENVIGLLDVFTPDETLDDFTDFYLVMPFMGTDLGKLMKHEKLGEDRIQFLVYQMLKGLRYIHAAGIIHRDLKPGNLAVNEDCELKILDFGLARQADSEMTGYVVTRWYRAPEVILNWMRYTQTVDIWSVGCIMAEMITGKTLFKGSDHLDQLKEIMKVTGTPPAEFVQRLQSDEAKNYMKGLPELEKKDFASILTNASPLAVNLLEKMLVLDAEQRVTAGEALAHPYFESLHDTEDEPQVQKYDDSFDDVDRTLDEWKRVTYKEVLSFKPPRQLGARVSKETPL

kinases (468) [19] = biological target: kinases (468) (Homo sapiens, UniProt P00519, Y253F); details: ABL1(Y253F)-phosphorylated; 1000 nM
kinases (468) [20] = biological target: kinases (468) (Homo sapiens, UniProt P36888, R834Q); details: FLT3(R834Q); 1000 nM
kinases (468) [21] = biological target: kinases (468) (Homo sapiens, UniProt Q96NX5); details: CAMK1G; 1000 nM
kinases (468) [22] = biological target: kinases (468) (Homo sapiens, UniProt Q9Y2H9); details: MAST1; 1000 nM
kinases (468) [23] = biological target: kinases (468) (Homo sapiens, UniProt P33981); details: kinase TTK (Entrez TTK); compound concentration 1000 nM
kinases (468) [24] = biological target: kinases (468) (Homo sapiens, UniProt Q9NY57); details: kinase YANK2 (Entrez STK32B); compound concentration 1000 nM
Chain of kinases (468) (Homo sapiens, UniProt Q9NY57) (Q9NY57 whole entry): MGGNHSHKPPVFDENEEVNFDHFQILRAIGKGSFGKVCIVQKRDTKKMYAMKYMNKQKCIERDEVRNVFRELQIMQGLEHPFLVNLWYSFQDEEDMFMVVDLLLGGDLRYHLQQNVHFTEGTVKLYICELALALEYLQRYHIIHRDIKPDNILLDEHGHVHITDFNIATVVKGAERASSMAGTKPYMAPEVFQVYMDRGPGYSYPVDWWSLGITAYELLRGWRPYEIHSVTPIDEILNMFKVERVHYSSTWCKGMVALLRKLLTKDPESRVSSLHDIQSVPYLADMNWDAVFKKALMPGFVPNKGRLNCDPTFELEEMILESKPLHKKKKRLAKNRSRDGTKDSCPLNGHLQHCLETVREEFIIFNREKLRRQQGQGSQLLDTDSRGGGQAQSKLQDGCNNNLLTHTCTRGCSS

kinases (468) [25] = biological target: kinases (468) (Homo sapiens, UniProt P15056, V600E); details: BRAF(V600E); 1000 nM
kinases (468) [26] = biological target: kinases (468) (Homo sapiens, UniProt O15146); details: MUSK; 1000 nM
kinases (468) [27] = biological target: kinases (468) (Homo sapiens, UniProt Q9Y2K2); details: QSK (KIAA0999); 1000 nM
kinases (468) [28] = biological target: kinases (468) (Homo sapiens, UniProt Q9Y2I7); details: PIKFYVE; 1000 nM
kinases (468) [29] = biological target: kinases (468) (Homo sapiens, UniProt P21802); details: FGFR2; 1000 nM
kinases (468) [30] = biological target: kinases (468) (Homo sapiens, UniProt Q7KZI7); details: MARK2; 1000 nM
kinases (468) [31] = biological target: kinases (468) (Homo sapiens, UniProt P00533, L861Q); details: EGFR(L861Q); 1000 nM
kinases (468) [32] = biological target: kinases (468) (Homo sapiens, UniProt Q12852); details: DLK (MAP3K12); 1000 nM
kinases (468) [33] = biological target: kinases (468) (Homo sapiens, UniProt P07332); details: FES; 1000 nM
Chain of kinases (468) (Homo sapiens, UniProt P07332) (P07332 whole entry): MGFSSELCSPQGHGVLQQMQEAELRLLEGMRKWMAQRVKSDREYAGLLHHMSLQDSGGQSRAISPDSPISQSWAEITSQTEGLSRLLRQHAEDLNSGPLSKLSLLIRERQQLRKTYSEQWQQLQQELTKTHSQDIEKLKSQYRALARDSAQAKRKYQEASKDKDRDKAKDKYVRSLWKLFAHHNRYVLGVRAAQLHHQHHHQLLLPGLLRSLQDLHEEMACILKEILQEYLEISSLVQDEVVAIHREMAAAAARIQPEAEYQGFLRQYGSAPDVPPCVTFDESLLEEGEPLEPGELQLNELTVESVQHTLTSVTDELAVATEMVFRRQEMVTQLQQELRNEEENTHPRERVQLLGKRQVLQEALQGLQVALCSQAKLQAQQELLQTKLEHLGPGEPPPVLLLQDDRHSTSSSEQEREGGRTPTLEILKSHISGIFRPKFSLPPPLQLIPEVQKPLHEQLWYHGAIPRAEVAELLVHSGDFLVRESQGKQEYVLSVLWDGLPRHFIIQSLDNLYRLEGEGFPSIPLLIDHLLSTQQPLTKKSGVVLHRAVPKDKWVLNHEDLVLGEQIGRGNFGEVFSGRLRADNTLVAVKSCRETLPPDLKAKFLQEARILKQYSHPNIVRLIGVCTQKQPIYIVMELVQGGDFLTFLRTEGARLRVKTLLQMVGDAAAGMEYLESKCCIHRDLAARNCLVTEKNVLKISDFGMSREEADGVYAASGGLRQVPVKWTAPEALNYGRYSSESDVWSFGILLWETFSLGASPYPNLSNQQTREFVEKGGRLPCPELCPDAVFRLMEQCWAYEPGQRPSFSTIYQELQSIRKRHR

kinases (468) [34] = biological target: kinases (468) (Homo sapiens, UniProt Q9Y6E0); details: MST3 (STK24); 1000 nM
Chain of kinases (468) (Homo sapiens, UniProt Q9Y6E0) (Q9Y6E0 whole entry): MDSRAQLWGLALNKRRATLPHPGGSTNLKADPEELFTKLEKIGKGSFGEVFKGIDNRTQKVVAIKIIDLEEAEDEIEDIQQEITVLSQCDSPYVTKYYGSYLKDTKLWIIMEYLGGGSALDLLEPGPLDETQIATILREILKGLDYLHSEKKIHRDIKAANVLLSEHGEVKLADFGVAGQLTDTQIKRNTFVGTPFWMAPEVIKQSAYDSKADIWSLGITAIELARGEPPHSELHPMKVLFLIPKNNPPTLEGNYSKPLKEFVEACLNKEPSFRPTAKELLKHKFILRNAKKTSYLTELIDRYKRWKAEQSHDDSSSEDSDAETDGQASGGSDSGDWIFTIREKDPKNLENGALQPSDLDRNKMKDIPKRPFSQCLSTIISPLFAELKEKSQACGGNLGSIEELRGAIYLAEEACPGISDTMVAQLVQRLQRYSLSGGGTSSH

Chain of kinases (468) (Homo sapiens, UniProt Q6ZN16) (Q6ZN16 whole entry): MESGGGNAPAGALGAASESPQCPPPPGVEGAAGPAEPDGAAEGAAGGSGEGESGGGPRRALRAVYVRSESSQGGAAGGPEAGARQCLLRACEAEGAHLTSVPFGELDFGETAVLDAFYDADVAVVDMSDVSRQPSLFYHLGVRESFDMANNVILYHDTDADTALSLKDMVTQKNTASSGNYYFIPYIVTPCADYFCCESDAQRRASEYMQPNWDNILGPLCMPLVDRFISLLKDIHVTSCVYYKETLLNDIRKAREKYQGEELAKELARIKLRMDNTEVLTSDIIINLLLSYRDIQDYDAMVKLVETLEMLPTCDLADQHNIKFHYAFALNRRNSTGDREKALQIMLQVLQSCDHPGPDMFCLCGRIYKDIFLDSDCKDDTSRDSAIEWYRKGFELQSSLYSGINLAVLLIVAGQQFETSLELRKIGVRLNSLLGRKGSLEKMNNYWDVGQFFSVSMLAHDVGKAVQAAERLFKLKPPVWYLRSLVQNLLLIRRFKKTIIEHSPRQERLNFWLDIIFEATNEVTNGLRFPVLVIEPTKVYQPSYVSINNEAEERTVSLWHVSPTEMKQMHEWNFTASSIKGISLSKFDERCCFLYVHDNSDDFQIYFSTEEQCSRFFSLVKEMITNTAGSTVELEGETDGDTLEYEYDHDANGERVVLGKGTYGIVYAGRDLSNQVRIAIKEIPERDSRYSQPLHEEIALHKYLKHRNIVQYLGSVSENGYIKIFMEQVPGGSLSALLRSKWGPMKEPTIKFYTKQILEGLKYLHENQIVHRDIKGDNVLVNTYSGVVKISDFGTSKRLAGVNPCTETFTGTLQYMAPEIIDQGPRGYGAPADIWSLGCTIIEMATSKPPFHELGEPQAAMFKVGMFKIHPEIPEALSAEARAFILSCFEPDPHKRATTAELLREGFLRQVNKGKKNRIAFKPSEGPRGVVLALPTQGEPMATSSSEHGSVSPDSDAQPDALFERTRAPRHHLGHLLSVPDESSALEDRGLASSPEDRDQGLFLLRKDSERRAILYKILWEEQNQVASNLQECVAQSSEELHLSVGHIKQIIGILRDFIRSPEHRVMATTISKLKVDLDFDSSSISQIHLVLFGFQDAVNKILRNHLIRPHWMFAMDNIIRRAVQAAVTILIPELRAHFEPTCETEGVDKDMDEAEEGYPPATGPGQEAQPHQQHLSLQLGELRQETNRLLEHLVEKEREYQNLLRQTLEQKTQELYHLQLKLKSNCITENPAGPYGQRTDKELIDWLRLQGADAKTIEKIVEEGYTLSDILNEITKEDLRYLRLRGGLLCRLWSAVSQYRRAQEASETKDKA

## C[C@H]1C[C@@H](O)CN(c2ncc(Cl)c(Nc3ccc4c(c3)c3c(c(=O)n4C)OCC(F)(F)[C@H](C4CC4)N3)n2)C1 [CCT373566_9A]
Kinases (468) [1]
  Percent Control: 100%
Kinases (468) [2]
  Percent Control: 100%
Kinases (468) [3]
  Percent Control: 99%
Kinases (468) [4]
  Percent Control: 90%
Kinases (468) [5]
  Percent Control: 100%
Kinases (468) [6]
  Percent Control: 93%
Kinases (468) [7]
  Percent Control: 91%
Kinases (468) [8]; kinase RSK3(Kin.Dom.1-N-terminal) (Entrez RPS6KA2)
  Percent Control: 100%
Kinases (468) [8]; kinase RSK3(Kin.Dom.2-C-terminal) (Entrez RPS6KA2)
  Percent Control: 83%
Kinases (468) [9]
  Percent Control: 100%
Kinases (468) [10]
  Percent Control: 91%
Kinases (468) [11]
  Percent Control: 100%
Kinases (468) [12]
  Percent Control: 99%
Kinases (468) [13]
  Percent Control: 69%
Kinases (468) [14]
  Percent Control: 99%
Kinases (468) [15]
  Percent Control: 98%
Kinases (468) [16]
  Percent Control: 100%
Kinases (468) [17]
  Percent Control: 72%
Kinases (468) [18]
  Percent Control: 92%
Kinases (468) [19]
  Percent Control: 91%
Kinases (468) [20]
  Percent Control: 100%
Kinases (468) [21]
  Percent Control: 96%
Kinases (468) [22]
  Percent Control: 100%
Kinases (468) [23]
  Percent Control: 91%
Kinases (468) [24]
  Percent Control: 90%
Kinases (468) [25]
  Percent Control: 100%
Kinases (468) [26]
  Percent Control: 100%
Kinases (468) [27]
  Percent Control: 90%
Kinases (468) [28]
  Percent Control: 83%
Kinases (468) [29]
  Percent Control: 100%
Kinases (468) [30]
  Percent Control: 93%
Kinases (468) [31]
  Percent Control: 100%
Kinases (468) [32]
  Percent Control: 96%
Kinases (468) [33]
  Percent Control: 100%
Kinases (468) [34]
  Percent Control: 80%

From publication PMC9234961 (Journal of Medicinal Chemistry, 2022)
